Assay results from patent US12636376B2, “Methods and compositions for use of growth factor antibodies in combination with non-tyrosine targeting kinase inhibitors” (In3Bio Ltd., priority 2019, dated 2026).

Legend:
[1] = system: pEGFR, pAkt, pErk½ signaling in H508 cells; assay: Western blot of pEGFR, pAkt, pErk½ signaling, 2 hour incubation, H508 cells; format: cell-based; details: 2 hour incubation with EGF, FIG. 20
[2] = patients taking Alpelisib; cited from earlier work
[3] = cited from earlier work

Structure (SMILES): Cc1nc(NC(=O)N2CCC[C@H]2C(N)=O)sc1-c1ccnc(C(C)(C)C(F)(F)F)c1 [Alpelisib, (2S)-1-N-[4-methyl-5-[2-(1,1,1-trifluoro-2-methylpropan-2-yl)pyridin-4-yl]-1,3-thiazol-2-yl]pyrrolidine-1,2-dicarboxamide]
- pAkt [1]: inhibit pAkt
- pEGFR or pErk½ signaling [1]: do not affect
- dose dependent benefit from treatment: advantage of 300 mg once daily over 150 mg twice daily [2]: 22%
- dose dependent benefit from treatment: advantage of a 200 mg daily dose over a 100 mg dose [2]: 51%

Structure (SMILES): COC(=O)N[C@@H](C)CNc1nccc(-c2cn(C(C)C)nc2-c2cc(Cl)cc(NS(C)(=O)=O)c2F)n1 [Encorafenib, methyl N-[(2S)-1-[[4-[3-[5-chloro-2-fluoro-3-(methanesulfonamido)phenyl]-1-propan-2-ylpyrazol-4-yl]pyrimidin-2-yl]amino]propan-2-yl]carbamate]
- median Tmax ([3]; after oral administration): 2 h
- dose absorbed ([3]; oral administration): At least 86%

Structure (SMILES): CC(=O)Nc1cccc(-n2c(=O)n(C3CC3)c(=O)c3c(Nc4ccc(I)cc4F)n(C)c(=O)c(C)c32)c1 [Trametinib, N-[3-[3-cyclopropyl-5-(2-fluoro-4-iodoanilino)-6,8-dimethyl-2,4,7-trioxopyrido[4,3-d]pyrimidin-1-yl]phenyl]acetamide]
- Elimination half-life ([3]; human, in vivo): 3.9 to 4.8 days
- peak plasma concentration occurred post-dose (Tmax) ([3]; oral administration, patients with BRAF V600 mutation-positive melanoma): 1.5 h
- bioavailability ([3]; single 2 mg oral dose): 72%
